Results: PMC4061505 (Anesthesiology, 2014)
Values joined by “and” are separate entries in the source; they are usually repeats but may differ in a detail not shown here. Equal entries are not always repeated. Where two headings read alike, the source gives them in different places.

Key:
mTOR pathway = test: pmTOR, pAkt, pERK, p4E-BP1 and pp70S6K levels in PC-12 cells; assay type: cell-based, rat
[1] = system: monomeric serine racemase (m-SR); conditions: PC-12 cells; compound alone; cited from earlier work
[2] = system: mTOR and related proteins; test: Western blot of phosphorylated mTOR and related proteins in rat brain; conditions: 20 mg·kg^−1 intravenous; for Increase in phosphorylation of mTOR and its downstream targets: rat pre-frontal cortex, 60-min post-administration, p<0.05
α3β4-nAChR = conditions: cited from earlier work; for IC50: α3β4-nAChR
[3] = Brain tissue concentrations after administration to male Wistar rats
anesthesia = conditions: cited from earlier work
[4] = system: monomeric serine racemase (m-SR); test: Expression of monomeric serine racemase protein in PC-12 cells; assay type: cell-based, rat; conditions: for Concentration of maximum increase in m-SR protein expression: gradual decline at higher concentrations
α7-nAChR [5] = conditions: cited from earlier work
NMDAR = conditions: cited from earlier work
[6] = system: mTOR and related proteins; conditions: cited from earlier work
[7] = system: (S)-nicotine-induced currents in PC-12 cells; conditions: cited from earlier work
α7-nAChR [8] = conditions: cited from earlier work; remark: listed apart in the source
[9] = after (R,S)-norketamine 20 mg·kg^−1 intravenous, 10 min
[10] = after (R,S)-norketamine 20 mg·kg^−1 intravenous, 20 min
[11] = after (R,S)-norketamine 20 mg·kg^−1 intravenous, 60 min
[12] = after (R,S)-norketamine 20 mg·kg^−1 intravenous, 240 min
[13] = after (R,S)-ketamine 40 mg·kg^−1 intraperitoneal, 10 min
[14] = after (R,S)-ketamine 40 mg·kg^−1 intraperitoneal, 30 min
[15] = after (R,S)-ketamine 40 mg·kg^−1 intraperitoneal, 60 min
[16] = after (R,S)-ketamine 40 mg·kg^−1 intraperitoneal, 240 min
[17] = time-dependent, significant in the 20- and 60-min samples

CN1CCC[C@H]1c1cccnc1 [(S)-nicotine]
Effect on the phosphorylation of pmTOR, p4E-BP1, pp70S6K, pERK1/2 and pAkt (mTOR pathway; (S)-nicotine alone, 2 μM, 1 h): no effect
Effect on expression of m-SR [1]: no effect

NC1(c2ccccc2Cl)CCCCC1=O (racemic) [(R,S)-norketamine]
Relative pAkt levels [2]: not impacted
Levels of phosphorylated forms of mTOR, pp70S6K and p4E-BP1 ([2]; 20- and 60-min samples): significant increases
Increase in pmTOR levels ([2]; 20-min sample): 15 fold
Increase in pmTOR levels ([2]; 60-min sample): 25 fold
Increase in pERK level ([2]; significant): ~ 6 fold
Increase in phosphorylation of mTOR and its downstream targets [2]: > 25 fold
IC50 (α3β4-nAChR): 9 µM
Levels of phosphorylated mTOR, 4E-BP1, p70S6K, ERK1/2 and Akt and of m-SR protein (mTOR pathway): significant increases
Concentration above which the increase lost significance (mTOR pathway; 60 min): greater than 250 nM
Rat brain tissue conc. of (2S,6S;2R,6R)-HNK [3, 9]: 16 ± 3 µM/g
Rat brain tissue conc. of (R,S)-norKet [3, 9]: 88 ± 8 µM/g
Rat brain tissue conc. of (2S,6S;2R,6R)-HNK [3, 10]: 16 ± 3 µM/g
Rat brain tissue conc. of (R,S)-norKet [3, 10]: 51 ± 4 µM/g
Rat brain tissue conc. of (2S,6S;2R,6R)-HNK [3, 11]: 8.9 ± 0.7 µM/g
Rat brain tissue conc. of (R,S)-norKet [3, 11]: 20 ± 7 µM/g
Rat brain tissue conc. of (2S,6S;2R,6R)-HNK [3, 12]: 2.1 ± 0.4 µM/g
Rat brain tissue conc. of (R,S)-norKet [3, 12]: 1.0 ± 0.1 µM/g
Anesthetic activity (anesthesia; rat): produce anesthesia
Increase in expression of serine racemase ([4]; 10nM): ~ 2 fold
Concentration of maximum increase in m-SR protein expression ([4]; 36 h): 10 nM

CCN1C[C@]2(COC(=O)c3ccccc3N3C(=O)C[C@H](C)C3=O)CC[C@H](OC)[C@@]34[C@@H]5C[C@H]6[C@H](OC)[C@@H]5[C@](O)(C[C@@H]6OC)[C@@](O)([C@@H](OC)[C@H]23)[C@@H]14 [methyllycaconitine]
Levels of phosphorylated mTOR, 4E-BP1, p70S6K, ERK1/2 and Akt and of m-SR protein (mTOR pathway): significant increases
Effect on expression of m-SR [1]: significantly increases

N[C@@]1(c2ccccc2Cl)CCC[C@@H](O)C1=O [(2R,6R)-hydroxynorketamine]
IC50 (α7-nAChR [5]): < 100 nM
Activity at the α3β4-nAChR (α3β4-nAChR): not active
Activity at the NMDAR (NMDAR): not active

CNC1(c2ccccc2Cl)CCCCC1=O (racemic) [(R,S)-ketamine]
Increase in the phosphorylated forms of mTOR pathway proteins ([6]; Wistar rats, peaked at 30–60 min post-administration): ~ 1.5 fold
Increase in pERK [6]: 1.5 fold
IC50 (α3β4-nAChR): 3 µM
Concentration required to produce the maximum effect on the mTOR pathway and m-SR expression (mTOR pathway): 600 nM
Levels of phosphorylated mTOR, 4E-BP1, p70S6K, ERK1/2 and Akt and of m-SR protein (mTOR pathway): significant increases
Concentration above which the increase lost significance (mTOR pathway; 60 min): greater than 2000 nM
Concentrations eliciting significant increases in protein phosphorylation (mTOR pathway; 60 min): 400 to 600 nM
Rat brain tissue conc. of (2S,6S;2R,6R)-HNK [3, 13]: 30 ± 5 µM/g
Rat brain tissue conc. of (R,S)-Ket [3, 13]: 137 ± 6 µM/g
Rat brain tissue conc. of (R,S)-norKet [3, 13]: 21 ± 8 µM/g
Rat brain tissue conc. of (2S,6S;2R,6R)-HNK [3, 14]: 21 ± 8 µM/g
Rat brain tissue conc. of (R,S)-Ket [3, 14]: 52 ± 44 µM/g
Rat brain tissue conc. of (R,S)-norKet [3, 14]: 34 ± 6 µM/g
Rat brain tissue conc. of (2S,6S;2R,6R)-HNK [3, 15]: 25 ± 5 µM/g
Rat brain tissue conc. of (R,S)-Ket [3, 15]: 19 ± 9 µM/g
Rat brain tissue conc. of (R,S)-norKet [3, 15]: 16 ± 4 µM/g
Rat brain tissue conc. of (2S,6S;2R,6R)-HNK [3, 16]: 11 ± 5 µM/g
Rat brain tissue conc. of (R,S)-Ket [3, 16]: 0.6 ± 0.1 µM/g
Rat brain tissue conc. of (R,S)-norKet [3, 16]: 1.3 ± 0.3 µM/g
IC50 [7]: 5 µM
Anesthetic activity (anesthesia; rat): produce anesthesia
IC50 (α7-nAChR [8]): 20 µM
Increase in expression of serine racemase ([4]; 1000nM): ~ 2 fold
Concentrations with significant increase in m-SR expression (ANOVA) ([4]; 36 h): 600 nM and 1000 nM
Concentration of maximum increase in m-SR protein expression ([4]; 36 h): 600 nM

N[C@]1(c2ccccc2Cl)CCC[C@H](O)C1=O
IC50 (α7-nAChR [5]): < 100 nM
Relative levels of pERK1/2 and pAkt ([2]; increased in the 20- and 60-min samples): did not reach statistical significance
Increase in p4E-BP1 [2, 17]: ~ 2.0 fold
Increase in pmTOR [2, 17]: ~ 2.0 fold
Increase in pp70S6K [2, 17]: ~ 2.5 fold
Increase in phosphorylation of mTOR and its downstream targets [2]: > 2 fold
Activity at the α3β4-nAChR (α3β4-nAChR): not active
IC50 (α3β4-nAChR): > 300 µM
Levels of phosphorylated mTOR, 4E-BP1, p70S6K, ERK1/2 and Akt and of m-SR protein (mTOR pathway): significant increases
Concentration above which pmTOR increase was markedly reduced (mTOR pathway; 60 min): greater than 1 nM
Activity at the NMDAR (NMDAR): not active
Increase in expression of serine racemase ([4]; 0.05nM): ~ 2 fold
Concentration of maximum increase in m-SR protein expression ([4]; 36 h): 0.05 nM

N[C@@]1(c2ccccc2Cl)CCC[C@@H](O)C1=O [(2S,6S;2R,6R)-hydroxynorketamine]
Anesthetic activity (anesthesia; rat): no anesthetic effect
Anesthetic activity (anesthesia; rat; ref 9;2R,6R)-Hydroxynorketamine): lacks anesthetic activity
